The source of these data is US12673946B2, “Pyrimidin-4(3H)-one derivatives as TRPV4 antagonists” (RaQualia Pharma Inc., priority 2020, dated 2026).

This assay concerns the target T1, human TRPV4 (Homo sapiens, UniProt Q9HBA0).
T1 construct: host or cells: tetracycline-inducible Flp-In T-REx 293 cells
The experiment in a line: Hypotonicity-induced Ca2+ influx (Fluo-4, FDSS). Type of assay: cell-based. Put shortly: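 Flp-In T-REx 293 cells with tetracycline-induced human TRPV4, loaded with Fluo-4 for 60 min at 25 °C. Compound added 5 min before hypotonic mannitol/CaCl2 solution. Ca2+ signal recorded for 4.5 min on FDSS.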

The mark [1] stands for this setting: Flp-In T-REx 293 cells expressing human TRPV4, examples listed under heading 'Human IC50<50 nM'.
Where [2] appears, read: Flp-In T-REx 293 cells stably expressing human TRPV4, compounds listed by potency bin (<10 nM Tables 96-1/96-2, <3 nM Table 97).

T1 sequence (Q9HBA0 whole entry): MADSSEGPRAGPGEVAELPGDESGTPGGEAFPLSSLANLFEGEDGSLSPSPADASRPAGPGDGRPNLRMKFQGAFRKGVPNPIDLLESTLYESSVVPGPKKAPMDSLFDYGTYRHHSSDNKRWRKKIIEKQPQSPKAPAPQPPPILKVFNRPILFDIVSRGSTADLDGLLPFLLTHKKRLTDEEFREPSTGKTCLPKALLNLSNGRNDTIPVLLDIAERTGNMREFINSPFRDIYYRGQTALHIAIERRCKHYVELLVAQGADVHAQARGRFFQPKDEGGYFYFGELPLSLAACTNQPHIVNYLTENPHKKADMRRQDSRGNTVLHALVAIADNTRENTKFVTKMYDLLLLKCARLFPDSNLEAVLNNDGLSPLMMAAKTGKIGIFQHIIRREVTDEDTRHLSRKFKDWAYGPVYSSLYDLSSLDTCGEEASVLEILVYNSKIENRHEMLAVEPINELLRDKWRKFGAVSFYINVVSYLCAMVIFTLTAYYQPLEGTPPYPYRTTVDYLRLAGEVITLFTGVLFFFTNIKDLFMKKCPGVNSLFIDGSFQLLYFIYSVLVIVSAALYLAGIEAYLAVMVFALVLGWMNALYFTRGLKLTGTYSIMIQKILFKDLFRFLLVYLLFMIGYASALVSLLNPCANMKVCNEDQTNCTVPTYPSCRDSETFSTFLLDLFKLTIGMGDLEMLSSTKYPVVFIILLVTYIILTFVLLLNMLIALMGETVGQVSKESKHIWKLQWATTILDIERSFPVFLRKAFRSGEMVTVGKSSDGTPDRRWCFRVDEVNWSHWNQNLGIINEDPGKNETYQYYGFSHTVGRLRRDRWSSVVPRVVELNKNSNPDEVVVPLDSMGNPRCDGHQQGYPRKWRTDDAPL

`CC(C)N(C)C(=O)c1csc(C2(c3nc4c(c(=O)[nH]3)CN(C(=O)[C@H](O)c3cccc(C(F)(F)F)c3)CCC4)CC2)c1` [59-5]: under setting [1], the half-maximal inhibitory concentration (IC50) was under 50 nM.

`O=C(NCc1ccccc1)c1csc(C2(c3nc4c(c(=O)[nH]3)CN(C(=O)[C@H](O)c3cccc(C(F)(F)F)c3)CCC4)CC2)c1` [59-6]: the half-inhibitory concentration (IC50) under setting [1] was under 50 nM.

As for `CN(Cc1cccc2ccccc12)C(=O)c1csc(C2(c3nc4c(c(=O)[nH]3)CN(C(=O)[C@H](O)c3cccc(C(F)(F)F)c3)CCC4)CC2)c1` [59-10], the half-inhibitory concentration (IC50) is, setting by setting: under setting [1], under 50 nM; under setting [2], under 10 nM.

In the case of `CN(Cc1ccc(Oc2ccccc2)cc1)C(=O)c1csc(C2(c3nc4c(c(=O)[nH]3)CN(C(=O)[C@H](O)c3cccc(C(F)(F)F)c3)CCC4)CC2)c1` [59-11], the IC50 by setting is: under setting [1], under 50 nM; under setting [2], under 10 nM.

For the compound `O=C(c1csc(C2(c3nc4c(c(=O)[nH]3)CN(C(=O)[C@H](O)c3cccc(C(F)(F)F)c3)CCC4)CC2)c1)N(Cc1ccccc1)Cc1ccccc1` [59-12], the IC50 is under 50 nM under setting [1] and under 10 nM under setting [2].

For `CN(C(=O)c1csc(C2(c3nc4c(c(=O)[nH]3)CN(C(=O)[C@H](O)c3cccc(C(F)(F)F)c3)CCC4)CC2)c1)C(c1ccccc1)c1ccccc1` [59-13], the 50% inhibitory concentration (IC50) was under 50 nM under setting [1] and under 10 nM under setting [2].

`CC(C)N(C(=O)c1csc(C2(c3nc4c(c(=O)[nH]3)CN(C(=O)[C@H](O)c3cccc(C(F)(F)F)c3)CCC4)CC2)c1)C(C)C` [59-14, (R)-5-(1-(6-(2-hydroxy-2-(3-(trifluoromethyl)phenyl)acetyl)-4-oxo-4,5,6,7,8,9-hexahydro-3H-pyrimido[5,4-c]azepin-2-yl)cyclopropyl)-N,N-diisopropylthiophene-3-carboxamide] had an IC50 under setting [1] of under 50 nM and an IC50 under setting [2] of under 10 nM.

On to `CC(C)N(C(=O)c1csc(C2(c3nc4c(c(=O)[nH]3)CN(C(=O)[C@H](O)c3cccc(C(F)(F)F)c3)CCC4)CC2)c1)C1CCCCC1` [59-15], for which the IC50 is, setting by setting: under setting [1], under 50 nM; under setting [2], under 10 nM.

Compound `O=C([C@H](O)c1cccc(C(F)(F)F)c1)N1CCCc2nc(C3(c4cc(C(=O)N(Cc5ccccc5)C5CCCCC5)cs4)CC3)[nH]c(=O)c2C1` [59-16] yielded an IC50 under setting [1] of under 50 nM and an IC50 under setting [2] of under 10 nM.

For the compound `CN(Cc1ccc2ccccc2c1)C(=O)c1csc(C2(c3nc4c(c(=O)[nH]3)CN(C(=O)[C@H](O)c3cccc(C(F)(F)F)c3)CCC4)CC2)c1` [59-17], the IC50 by setting is: under setting [1], under 50 nM; under setting [2], under 10 nM.

As to `O=C([C@H](O)c1cccc(C(F)(F)F)c1)N1CCCc2nc(C3(c4cc(C(=O)N(C5CCCCC5)C5CCCCC5)cs4)CC3)[nH]c(=O)c2C1` [59-18], the IC50 under setting [1] was under 50 nM and the IC50 under setting [2] was under 10 nM.

Under setting [1], `CN(C(=O)c1csc(C2(c3nc4c(c(=O)[nH]3)CN(C(=O)[C@H](O)c3cccc(C(F)(F)F)c3)CCC4)CC2)c1)C(C)(C)C` [59-19] yielded an IC50 of under 50 nM.

Take `CC(=O)c1cccc(C2(c3nc4c(c(=O)[nH]3)CN(C(=O)[C@H](O)c3cccc(C(F)(F)F)c3)CCC4)CC2)c1` [60-1, (R)-2-(1-(3-acetylphenyl)cyclopropyl)-6-(2-hydroxy-2-(3-(trifluoromethyl)phenyl)acetyl)-3,5,6,7,8,9-hexahydro-4H-pyrimido[5,4-c]azepin-4-one]: under setting [1], the IC50 was under 50 nM.
